Test results: ChEMBL document CHEMBL4483862, “Open-source discovery of chemical leads for next-generation chemoprotective antimalarials” (2018)

System: Plasmodium berghei
Experiment: Luciferase/luciferin-expressing antifolate-resistant parasites were used to infect a culture of HepG2 cells that were pre-incubated with compounds. Infected hepatocytes emit light due to the luciferase reaction. Assay results are presented as the percent inhibition of light emission compared to control. […]
Format: functional
Conditions: sporozoite; for IC90: read-out: LUCIFERASE INFECTION ASSAY - IC90

Compound | IC90 [µM] | further results
O=C1c2n[nH]c(-c3ccccc3O)c2C(c2ccccc2F)N1Cc1ccco1 (configuration not stated) | > 8.47 | IC50 (FFLUC_HILL_SLOPE 2.17, FFLUC_R_SQUARED 0.481, read-out: LUCIFERASE INFECTION ASSAY - IC50): > 8.47 µM
O=C(O)c1cnc2cc(Cl)cc(Cl)c2c1O | > 12.8 | IC50 (FFLUC_HILL_SLOPE 2.26, FFLUC_R_SQUARED 0.266, PBLUC_HILL_SLOPE 1.77, PBLUC_R_SQUARED 0.584, read-out: LUCIFERASE INFECTION ASSAY - IC50): 8.35 µM
CN(c1ccccc1)c1cc(C(=O)Nc2ccccc2)ncn1 | 0.681 | IC50 (FFLUC_HILL_SLOPE 2.25, FFLUC_R_SQUARED 0.879, PBLUC_HILL_SLOPE 0.724, PBLUC_R_SQUARED 0.686, read-out: LUCIFERASE INFECTION ASSAY - IC50): 0.0327 µM
COc1ccccc1-n1nnnc1SCC(O)Cn1c2ccccc2c2ccccc21 (configuration not stated) | > 10 | IC50 (FFLUC_HILL_SLOPE 2.23, FFLUC_R_SQUARED 0.596, PBLUC_HILL_SLOPE 13.3, PBLUC_R_SQUARED 0.223, read-out: LUCIFERASE INFECTION ASSAY - IC50): 9.95 µM
Cc1ccc2c(c1)NC(C)c1ccccc1O2 (configuration not stated) | > 10 | IC50 (FFLUC_HILL_SLOPE 2.08, FFLUC_R_SQUARED 0.224, HEPG2TOX_HILL_SLOPE 6.95, HEPG2TOX_R_SQUARED 0.413, PBLUC_HILL_SLOPE 13.7, PBLUC_R_SQUARED 0.727, read-out: LUCIFERASE INFECTION ASSAY - IC50): 8.91 µM
CN1/C(=C\C(=O)CCCSc2nnc(-c3ccccc3)n2N)C(C)(C)c2ccccc21 | > 10 | IC50 (FFLUC_HILL_SLOPE 2.28, FFLUC_R_SQUARED 0.541, HEPG2TOX_HILL_SLOPE 7.74, HEPG2TOX_R_SQUARED 0.566, PBLUC_HILL_SLOPE 1.71, PBLUC_R_SQUARED 0.591, read-out: LUCIFERASE INFECTION ASSAY - IC50): 3.64 µM
Cc1[nH]c2ccccc2c1C1=NNC(=NCc2ccc3c(c2)OCO3)SC1 | > 10 | IC50 (FFLUC_HILL_SLOPE 2.18, FFLUC_R_SQUARED 0.288, PBLUC_HILL_SLOPE 2.54, PBLUC_R_SQUARED 0.596, read-out: LUCIFERASE INFECTION ASSAY - IC50): 4.55 µM
Cc1cc(C(=O)C(C)OC(=O)c2ccc(NS(=O)(=O)c3ccc4c(c3)OCCO4)cc2)c(C)n1-c1ccc(Cl)cc1 (configuration not stated) | > 10 | IC50 (FFLUC_HILL_SLOPE 2.2, FFLUC_R_SQUARED 0.531, HEPG2TOX_HILL_SLOPE 0.947, HEPG2TOX_R_SQUARED 0.641, PBLUC_HILL_SLOPE 4.36, PBLUC_R_SQUARED 0.544, read-out: LUCIFERASE INFECTION ASSAY - IC50): 6.62 µM
O=C(Nc1cc(S(=O)(=O)c2ccccc2)cs1)c1cccc(Cl)c1 | > 8.73 | IC50 (FFLUC_HILL_SLOPE 2.16, FFLUC_R_SQUARED 0.469, read-out: LUCIFERASE INFECTION ASSAY - IC50): > 8.73 µM
CCOc1ncccc1C(=O)Nc1cc(S(=O)(=O)N2CCOCC2)ccc1Oc1ccccc1 | > 10 | IC50 (FFLUC_HILL_SLOPE 2.19, FFLUC_R_SQUARED 0.739, read-out: LUCIFERASE INFECTION ASSAY - IC50): > 10 µM
CN(C)CCNCCCOc1ccc(C(C)(C)c2ccccc2)cc1 | > 10 | IC50 (FFLUC_HILL_SLOPE 2.11, FFLUC_R_SQUARED 0.273, PBLUC_HILL_SLOPE 1.18, PBLUC_R_SQUARED 0.227, read-out: LUCIFERASE INFECTION ASSAY - IC50): 5.92 µM
O=C1/C(=C/c2ccc(-n3nncc3C34CC5CC(CC(C5)C3)C4)cc2)CCC/C1=C\c1ccc(-n2nncc2C23CC4CC(CC(C4)C2)C3)cc1 | 4.22 | IC50 (FFLUC_HILL_SLOPE 2.2, FFLUC_R_SQUARED 0.872, HEPG2TOX_HILL_SLOPE 3.7, HEPG2TOX_R_SQUARED 0.967, PBLUC_HILL_SLOPE 5.71, PBLUC_R_SQUARED 0.867, read-out: LUCIFERASE INFECTION ASSAY - IC50): 2.87 µM
COc1ccc2c(CC(=O)N(c3cc(C)cc(C)c3)c3nc(-c4ccc(Br)cc4)cs3)coc2c1 | > 10 | IC50 (FFLUC_HILL_SLOPE 2.23, FFLUC_R_SQUARED 0.6, read-out: LUCIFERASE INFECTION ASSAY - IC50): > 10 µM
CCCN(CCC)S(=O)(=O)c1ccc(-n2ncc(Cl)c(Cl)c2=O)cc1 | 2.67 | IC50 (FFLUC_HILL_SLOPE 2.22, FFLUC_R_SQUARED 0.495, HEPG2TOX_HILL_SLOPE 4.03, HEPG2TOX_R_SQUARED 0.969, PBLUC_HILL_SLOPE 5.8, PBLUC_R_SQUARED 0.662, read-out: LUCIFERASE INFECTION ASSAY - IC50): 1.83 µM
CC1Cc2cc(C3=NNC(=NC4CC4)SC3)ccc2N1S(C)(=O)=O (configuration not stated) | 1.38 | IC50 (FFLUC_HILL_SLOPE 2.25, FFLUC_R_SQUARED 0.383, HEPG2TOX_HILL_SLOPE 1.12, HEPG2TOX_R_SQUARED 0.483, PBLUC_HILL_SLOPE 1.74, PBLUC_R_SQUARED 0.672, read-out: LUCIFERASE INFECTION ASSAY - IC50): 0.197 µM
Cc1onc(-c2c(Cl)cccc2Cl)c1NC(=O)Nc1cscc1S(=O)(=O)C(C)C | > 6.96 | IC50 (FFLUC_HILL_SLOPE 2.28, FFLUC_R_SQUARED 0.234, read-out: LUCIFERASE INFECTION ASSAY - IC50): > 6.96 µM

Compound | IC90 [µM] | further results
C=CCN(c1ccccc1)S(=O)(=O)c1ccc(Cl)c(C(=O)Nc2ccc(N(c3ccccc3)C(C)C)cc2)c1 | 8.36 | IC50 (FFLUC_HILL_SLOPE 2.09, FFLUC_R_SQUARED 0.761, HEPG2TOX_HILL_SLOPE 2.29, HEPG2TOX_R_SQUARED 0.839, PBLUC_HILL_SLOPE 16.1, PBLUC_R_SQUARED 0.248, read-out: LUCIFERASE INFECTION ASSAY - IC50): 7.29 µM
CCc1c(C(=O)/C=C/c2cccc(C#N)c2)oc2ccccc12 | 9.02 | IC50 (FFLUC_HILL_SLOPE 2.17, FFLUC_R_SQUARED 0.174, HEPG2TOX_HILL_SLOPE 14.7, HEPG2TOX_R_SQUARED 0.793, PBLUC_HILL_SLOPE 2.78, PBLUC_R_SQUARED 0.439, read-out: LUCIFERASE INFECTION ASSAY - IC50): 4.09 µM
Cc1nn(-c2ccccc2)c2nc(-c3cccs3)cc(C(=O)N3CCc4ccccc43)c12 | > 10 | IC50 (FFLUC_HILL_SLOPE 2.26, FFLUC_R_SQUARED 0.632, PBLUC_HILL_SLOPE 0.862, PBLUC_R_SQUARED 0.727, read-out: LUCIFERASE INFECTION ASSAY - IC50): 4.63 µM
CC(C)CN1/C(=C\c2cccc3[nH]ccc23)C(=O)c2ccccc2S1(=O)=O | > 8.67 | IC50 (FFLUC_HILL_SLOPE 2.19, FFLUC_R_SQUARED 0.818, HEPG2TOX_HILL_SLOPE 2.77, HEPG2TOX_R_SQUARED 0.93, read-out: LUCIFERASE INFECTION ASSAY - IC50): > 8.67 µM
COc1ccc(-c2nnc(SCn3nnc4ccccc4c3=O)n2-c2ccccc2C(C)C)cc1 | > 10 | IC50 (FFLUC_HILL_SLOPE 2.15, FFLUC_R_SQUARED 0.39, read-out: LUCIFERASE INFECTION ASSAY - IC50): > 10 µM
COC(=O)C1=C2N(C)c3ccccc3N2C(Nc2ccc(C)cc2)=NC1C(F)(F)F.Cc1ccc(C)cc1 (configuration not stated) | > 10 | IC50 (FFLUC_HILL_SLOPE 2.2, FFLUC_R_SQUARED 0.697, HEPG2TOX_HILL_SLOPE 5.36, HEPG2TOX_R_SQUARED 0.5, PBLUC_HILL_SLOPE 4.61, PBLUC_R_SQUARED 0.0573, read-out: LUCIFERASE INFECTION ASSAY - IC50): 7.42 µM
Cc1cccc(-c2nn(-c3ccccc3)cc2/C=C2\CCn3c2nc2cc(Cl)ccc2c3=O)c1 | > 10 | IC50 (FFLUC_HILL_SLOPE 2.22, FFLUC_R_SQUARED 0.239, read-out: LUCIFERASE INFECTION ASSAY - IC50): > 10 µM
Cc1cc(/C=N/Nc2nc3ccccc3[nH]2)c(C)n1-c1ccc(Cl)c(C(F)(F)F)c1 | 4.05 | IC50 (FFLUC_HILL_SLOPE 2.14, FFLUC_R_SQUARED 0.676, PBLUC_HILL_SLOPE 2.82, PBLUC_R_SQUARED 0.68, read-out: LUCIFERASE INFECTION ASSAY - IC50): 1.86 µM
Fc1ccc(CNc2n[nH]c(=S)s2)cc1 | > 13.7 | IC50 (FFLUC_HILL_SLOPE 2.08, FFLUC_R_SQUARED 0.432, read-out: LUCIFERASE INFECTION ASSAY - IC50): > 13.7 µM
CCSC1=N/C(=C\c2cc(C(C)(C)C)c(O)c(C(C)(C)C)c2)C(=O)S1 | > 8.74 | IC50 (FFLUC_HILL_SLOPE 2.27, FFLUC_R_SQUARED 0.423, read-out: LUCIFERASE INFECTION ASSAY - IC50): > 8.74 µM
Cc1ccc(OCCOC(=O)c2cc(=O)[nH]c3ccccc23)cc1 | > 10 | IC50 (FFLUC_HILL_SLOPE 2.13, FFLUC_R_SQUARED 0.116, read-out: LUCIFERASE INFECTION ASSAY - IC50): > 10 µM
CN(C)c1ccc(/C=C(\C#N)C(=O)c2ccc(-n3nncc3C34CC5CC(CC(C5)C3)C4)cc2)cc1 | > 10 | IC50 (FFLUC_HILL_SLOPE 2.12, FFLUC_R_SQUARED 0.418, PBLUC_HILL_SLOPE 11.3, PBLUC_R_SQUARED 0.267, read-out: LUCIFERASE INFECTION ASSAY - IC50): > 10 µM
Nc1c(C(=O)c2ccc(Cl)cc2)sc(NCc2ccco2)c1C(=O)Nc1cc(Cl)ccc1Cl | 4.4 | IC50 (FFLUC_HILL_SLOPE 2.13, FFLUC_R_SQUARED 0.528, HEPG2TOX_HILL_SLOPE 16.1, HEPG2TOX_R_SQUARED 0.784, PBLUC_HILL_SLOPE 2.08, PBLUC_R_SQUARED 0.686, read-out: LUCIFERASE INFECTION ASSAY - IC50): 1.53 µM
Nc1cc(Cl)c(-n2cccc2)cc1Oc1ccc(Cl)cc1 | > 10.3 | IC50 (FFLUC_HILL_SLOPE 2.28, FFLUC_R_SQUARED 0.58, read-out: LUCIFERASE INFECTION ASSAY - IC50): > 10.3 µM
O=C1C=CC(=O)N1c1ccc(F)c(Cl)c1 | > 14.6 | IC50 (FFLUC_HILL_SLOPE 2.09, FFLUC_R_SQUARED 0.475, HEPG2TOX_HILL_SLOPE 6.94, HEPG2TOX_R_SQUARED 0.217, PBLUC_HILL_SLOPE 8.9, PBLUC_R_SQUARED 0.496, read-out: LUCIFERASE INFECTION ASSAY - IC50): 13.6 µM
